Data on 13 compounds can be found in US20110059043A1, “CHEMICAL COMPOUNDS” (priority 2009, published 2011).

The subject of data set [1] is HCV replicon cells Huh 9B. In words: HCV replicon assay (luciferase). As to conditions: Hepatitis C virus, reduction of replicon level by 50% vs untreated cell control, 72 h. The format is cell-based. Background: Replicon systems follow genome replication, usually without infectious particles.
The target in data set [2] is T1, Recombinant HCV polymerase (BK strain) (Hepatitis C virus genotype 1b, UniProt P26663).
T1 construct: Recombinant HCV polymerase (BK strain) was expressed and purified from E. coli with a 21 amino acid C-terminal deletion; His6; made in house; host or cells: E. coli
In words: HCV polymerase enzyme assay (radiometric [33P]-UTP incorporation). Type of data set: biochemical, HCV 1b. The method, boiled down: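 His6-tagged BK-strain NS5B lacking 21 C-terminal residues, expressed in E. coli, at 100 nM in Tris pH 7.5 with 5 mM MgCl2 and 3% DMSO. Substrates: 125 nM biotin-U13:0.63 μg/ml PolyA, 200 nM UTP plus [33P]-UTP; 100 min at 25° C. Incorporation read by streptavidin capture; IC50 from 8-point curve.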

Data set [3] has as its system HCV replicon cells Huh 9B. The format is cell-based. As to conditions: concentration reducing total cell area by 50% relative to DMSO controls; 72 h. Put shortly: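 Huh 9B replicon cells (luciferase-ubiquitin-neomycin fusion, EMCV-IRES-driven HCV polyprotein with adaptive mutations) were seeded from a 100,000 cells/ml suspension in G418-free medium, grown 24 h, then exposed to compound (dilutions at 1% DMSO) for 72 h at 37 °C. For toxicity, methylene blue staining was read at 620 nm and TD50 derived relative to DMSO controls.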

The structures appear in SMILES notation. Where only a bound is given, the exact number is not on record here.

T1 sequence (P26663 2420-2989): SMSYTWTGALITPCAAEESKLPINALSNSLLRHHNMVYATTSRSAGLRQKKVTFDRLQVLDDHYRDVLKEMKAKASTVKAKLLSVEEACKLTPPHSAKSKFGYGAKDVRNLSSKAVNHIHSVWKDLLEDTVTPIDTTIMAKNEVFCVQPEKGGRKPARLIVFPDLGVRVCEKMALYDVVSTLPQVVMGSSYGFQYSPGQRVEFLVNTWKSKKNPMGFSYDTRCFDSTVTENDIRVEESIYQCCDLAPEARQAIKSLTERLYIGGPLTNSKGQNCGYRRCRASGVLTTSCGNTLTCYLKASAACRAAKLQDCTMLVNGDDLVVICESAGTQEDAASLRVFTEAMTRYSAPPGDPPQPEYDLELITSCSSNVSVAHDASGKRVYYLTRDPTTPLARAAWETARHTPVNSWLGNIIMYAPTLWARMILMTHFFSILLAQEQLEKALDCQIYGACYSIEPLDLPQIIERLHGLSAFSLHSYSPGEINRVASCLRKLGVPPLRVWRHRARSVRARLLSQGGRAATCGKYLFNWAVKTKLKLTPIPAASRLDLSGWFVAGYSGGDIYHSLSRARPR

For orientation: IC50 means the concentration needed to halve the response being measured. On to `CCOCCOc1ncc(F)cc1C(=O)NC1N=C(c2c(Cl)cc(Cl)cc2OCC)c2ccccc2NC1=O` (stereo not drawn) [Example 58, N-(5-(2,4-Dichloro-6-ethoxyphenyl)-2-oxo-2,3-dihydro-1H-benzo[e][1,4]diazepin-3-yl)-2-(2-ethoxyethoxy)-5-fluoronicotinamide], for which the IC50 in data set [1] amounted to 9.9 nM; in data set [2] it was 69 nM. The “Replicon Assay Value TD50” value in data set [3] is 11.875 µM.

In the case of `COCCOc1ccc(Cl)cc1C(=O)N[C@H]1N=C(c2c(Cl)cc(Cl)cc2Cl)c2ccccc2NC1=O` [Example 59, (S)-5-Chloro-2-(2-methoxyethoxy)-N-(2-oxo-5-(2,4,6-trichlorophenyl)-2,3-dihydro-1H-benzo[e][1,4]diazepin-3-yl)benzamide], the half-inhibitory concentration (IC50) in data set [1] was 45.3 nM; in data set [2], 87.6 nM. The “Replicon Assay Value TD50” value in data set [3] was over 25 µM.

On to `COCCOc1ccc(Cl)cc1C(=O)N[C@@H]1N=C(c2c(Cl)cc(Cl)cc2Cl)c2ccccc2NC1=O` [Example 60, (R)-5-Chloro-2-(2-methoxyethoxy)-N-(2-oxo-5-(2,4,6-trichlorophenyl)-2,3-dihydro-1H-benzo[e][1,4]diazepin-3-yl)benzamide], for which the figures for the 50% inhibitory concentration (IC50) in data set [1] and in data set [2] were 798 nM and 27700 nM, respectively. Further, the “Replicon Assay Value TD50” value in data set [3] is over 25 µM.

Consider `COCCOc1ccc(F)cc1C(=O)N[C@H]1N=C(c2c(Cl)cc(Cl)cc2Cl)c2ccccc2NC1=O` [Example 61, (S)-5-Fluoro-2-(2-methoxyethoxy)-N-(2-oxo-5-(2,4,6-trichlorophenyl)-2,3-dihydro-1H-benzo[e][1,4]diazepin-3-yl)benzamide], for which the IC50 stood at 16.7 nM in data set [1] and 44.4 nM in data set [2]. For the same compound, the “Replicon Assay Value TD50” value in data set [3] was 17.347 µM.

On to `COCCOc1ccc(F)cc1C(=O)N[C@@H]1N=C(c2c(Cl)cc(Cl)cc2Cl)c2ccccc2NC1=O` [Example 62, (R)-5-Fluoro-2-(2-methoxyethoxy)-N-(2-oxo-5-(2,4,6-trichlorophenyl)-2,3-dihydro-1H-benzo[e][1,4]diazepin-3-yl)benzamide], for which the IC50 was determined as 594 nM in data set [1] and 16800 nM in data set [2]. Further, in data set [3], the “Replicon Assay Value TD50” value was determined as 24.765 µM.

With `COCCOc1ncc(F)cc1C(=O)N[C@H]1N=C(c2c(Cl)cc(Cl)cc2Cl)c2ccccc2NC1=O` [Example 63, (S)-5-Fluoro-2-(2-methoxyethoxy)-N-(2-oxo-5-(2,4,6-trichlorophenyl)-2,3-dihydro-1H-benzo[e][1,4]diazepin-3-yl)nicotinamide], the half-inhibitory concentration (IC50) in data set [1] was found to be 9.7 nM; in data set [2], 50.5 nM. Also, the “Replicon Assay Value TD50” value in data set [3] is 17.386 µM.

Consider `COCCOc1ncc(F)cc1C(=O)N[C@@H]1N=C(c2c(Cl)cc(Cl)cc2Cl)c2ccccc2NC1=O` [Example 64, (R)-5-Fluoro-2-(2-methoxyethoxy)-N-(2-oxo-5-(2,4,6-trichlorophenyl)-2,3-dihydro-1H-benzo[e][1,4]diazepin-3-yl)nicotinamide], for which the IC50 amounted to 241 nM in data set [1] and 2070 nM in data set [2]. Moreover, in data set [3], the “Replicon Assay Value TD50” value amounted to 23.452 µM.

For the compound `CCOCCOc1ncc(F)cc1C(=O)N[C@H]1N=C(c2c(Cl)cc(Cl)cc2Cl)c2ccccc2NC1=O` [Example 65, (S)-2-(2-Ethoxyethoxy)-5-fluoro-N-(2-oxo-5-(2,4,6-trichlorophenyl)-2,3-dihydro-1H-benzo[e][1,4]diazepin-3-yl)nicotinamide], the half-inhibitory concentration (IC50) in data set [1] worked out at 4.8 nM; in data set [2], 32.3 nM. In addition, the “Replicon Assay Value TD50” value in data set [3] stood at 10.854 µM.

As to `CCOCCOc1ncc(F)cc1C(=O)N[C@@H]1N=C(c2c(Cl)cc(Cl)cc2Cl)c2ccccc2NC1=O` [Example 66, (R)-2-(2-Ethoxyethoxy)-5-fluoro-N-(2-oxo-5-(2,4,6-trichlorophenyl)-2,3-dihydro-1H-benzo[e][1,4]diazepin-3-yl)nicotinamide], the concentration for half-maximal inhibition (IC50) in data set [1] was 163 nM; in data set [2] it was 2220 nM. Besides, the “Replicon Assay Value TD50” value in data set [3] turned out to be 16.686 µM.

Consider `COCCN(C)c1ncc(F)cc1C(=O)N[C@H]1N=C(c2c(Cl)cc(Cl)cc2Cl)c2ccccc2NC1=O` [Example 67, (S)-5-Fluoro-2-((2-methoxyethyl)(methyl)amino)-N-(2-oxo-5-(2,4,6-trichlorophenyl)-2,3-dihydro-1H-benzo[e][1,4]diazepin-3-yl)nicotinamide], for which the values for the IC50 in data set [1] and in data set [2] were 11.2 nM and 36.3 nM, respectively. Besides, in data set [3], the “Replicon Assay Value TD50” value was determined as 13.07 µM.

In the case of `COCCN(C)c1ncc(F)cc1C(=O)N[C@@H]1N=C(c2c(Cl)cc(Cl)cc2Cl)c2ccccc2NC1=O` [Example 68, (R)-5-Fluoro-2-((2-methoxyethyl)(methyl)amino)-N-(2-oxo-5-(2,4,6-trichlorophenyl)-2,3-dihydro-1H-benzo[e][1,4]diazepin-3-yl)nicotinamide], the half-maximal inhibitory concentration (IC50) in data set [1] was found to be 360 nM; in data set [2], 5170 nM. The “Replicon Assay Value TD50” value in data set [3] is 16.618 µM.

Turning to `CCOc1cc(Cl)cc(Cl)c1C1=N[C@H](NC(=O)c2cc(F)ccc2OCCOC)C(=O)Nc2ccccc21` [Example 69, (S)—N-(5-(2,4-Dichloro-6-ethoxyphenyl)-2-oxo-2,3-dihydro-1H-benzo[e][1,4]diazepin-3-yl)-5-fluoro-2-(2-methoxyethoxy)benzamide], the concentration for half-maximal inhibition (IC50) in data set [1] was found to be 31.3 nM; in data set [2], 79.2 nM. For the same compound, the “Replicon Assay Value TD50” value in data set [3] came to 17.731 µM.

Take `CCOc1cc(Cl)cc(Cl)c1C1=N[C@@H](NC(=O)c2cc(F)ccc2OCCOC)C(=O)Nc2ccccc21` [Example 70, (R)—N-(5-(2,4-Dichloro-6-ethoxyphenyl)-2-oxo-2,3-dihydro-1H-benzo[e][1,4]diazepin-3-yl)-5-fluoro-2-(2-methoxyethoxy)benzamide]: the IC50 in data set [1] stood at 737 nM; in data set [2], 5360 nM. Moreover, in data set [3], the “Replicon Assay Value TD50” value amounted to 24.592 µM.
